Experimental data from ChEMBL document CHEMBL1131112, “Matrix metalloproteinase inhibitors: a structure-activity study” (J Med Chem, 1998).

Assays:
Neutrophil collagenase = Neutrophil collagenase (Homo sapiens, UniProt P22894)
Description: The compound was tested for its binding affinity towards neutrophil collagenase (Matrix metalloprotease-8)

[1] = target: 72 kDa type IV collagenase (Homo sapiens, UniProt P08253)
Description: Binding affinity towards 72 kDa gelatinase (Matrix metalloprotease-2)

[2] = target: Matrix metalloproteinase-9 (Homo sapiens, UniProt P14780)
Chain of Matrix metalloproteinase-9 (P14780 whole entry): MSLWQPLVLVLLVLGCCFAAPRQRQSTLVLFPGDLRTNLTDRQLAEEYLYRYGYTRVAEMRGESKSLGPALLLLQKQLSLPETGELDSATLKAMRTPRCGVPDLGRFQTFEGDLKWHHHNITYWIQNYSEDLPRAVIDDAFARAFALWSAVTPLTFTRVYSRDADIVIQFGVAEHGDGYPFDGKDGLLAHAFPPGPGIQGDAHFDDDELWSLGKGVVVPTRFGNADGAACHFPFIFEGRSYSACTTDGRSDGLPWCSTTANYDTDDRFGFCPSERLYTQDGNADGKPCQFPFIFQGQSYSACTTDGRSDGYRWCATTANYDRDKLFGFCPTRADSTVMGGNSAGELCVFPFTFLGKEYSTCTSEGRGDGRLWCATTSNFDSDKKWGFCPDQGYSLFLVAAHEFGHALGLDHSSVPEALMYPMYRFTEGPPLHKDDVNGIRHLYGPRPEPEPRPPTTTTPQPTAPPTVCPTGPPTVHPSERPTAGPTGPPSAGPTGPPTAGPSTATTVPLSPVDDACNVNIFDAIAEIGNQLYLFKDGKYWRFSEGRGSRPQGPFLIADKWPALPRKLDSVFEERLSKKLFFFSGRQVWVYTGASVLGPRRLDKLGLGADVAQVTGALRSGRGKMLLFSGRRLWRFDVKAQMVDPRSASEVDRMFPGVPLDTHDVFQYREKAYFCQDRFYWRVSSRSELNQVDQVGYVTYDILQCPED
Description: The compound was tested for its binding affinity towards 92 kDa gelatinase (Matrix metalloprotease-9)

Chain of Neutrophil collagenase (P22894 whole entry): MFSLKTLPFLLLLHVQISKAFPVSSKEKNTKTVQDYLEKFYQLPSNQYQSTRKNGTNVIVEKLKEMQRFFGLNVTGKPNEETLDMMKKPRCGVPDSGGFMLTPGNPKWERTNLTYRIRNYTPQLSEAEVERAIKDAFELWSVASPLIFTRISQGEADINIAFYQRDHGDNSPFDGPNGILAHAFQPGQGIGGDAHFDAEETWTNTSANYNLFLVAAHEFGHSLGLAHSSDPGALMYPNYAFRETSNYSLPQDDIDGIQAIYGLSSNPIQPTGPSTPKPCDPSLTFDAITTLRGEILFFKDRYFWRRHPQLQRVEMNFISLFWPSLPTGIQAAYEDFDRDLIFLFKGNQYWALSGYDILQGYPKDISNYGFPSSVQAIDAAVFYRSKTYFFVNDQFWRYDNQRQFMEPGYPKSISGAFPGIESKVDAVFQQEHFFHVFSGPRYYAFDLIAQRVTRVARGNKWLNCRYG
Chain of 72 kDa type IV collagenase (P08253 whole entry): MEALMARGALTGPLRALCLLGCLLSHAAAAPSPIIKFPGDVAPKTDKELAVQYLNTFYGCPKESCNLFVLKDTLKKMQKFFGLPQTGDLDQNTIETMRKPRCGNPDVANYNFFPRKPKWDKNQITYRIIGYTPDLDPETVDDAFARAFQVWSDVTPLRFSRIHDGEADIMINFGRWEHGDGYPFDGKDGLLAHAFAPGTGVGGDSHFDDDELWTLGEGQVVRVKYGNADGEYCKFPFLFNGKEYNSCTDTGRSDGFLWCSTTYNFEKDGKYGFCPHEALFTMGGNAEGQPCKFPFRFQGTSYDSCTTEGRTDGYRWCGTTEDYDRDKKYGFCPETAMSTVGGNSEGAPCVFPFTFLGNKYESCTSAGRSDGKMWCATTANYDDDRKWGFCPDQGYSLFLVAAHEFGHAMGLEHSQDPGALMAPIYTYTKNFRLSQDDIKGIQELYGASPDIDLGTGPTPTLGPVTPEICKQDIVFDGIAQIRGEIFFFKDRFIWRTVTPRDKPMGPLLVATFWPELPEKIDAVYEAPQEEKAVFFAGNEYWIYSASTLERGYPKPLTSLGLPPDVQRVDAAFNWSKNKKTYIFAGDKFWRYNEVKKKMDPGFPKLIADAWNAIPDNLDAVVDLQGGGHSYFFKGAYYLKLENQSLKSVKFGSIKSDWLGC

Compound | Ki (Neutrophil collagenase) [nM] | Ki [1] [nM] | Ki [2] [nM]
CNC(=O)[C@@H](Cc1cnc2ccccc2c1)NC(=O)[C@@H](CC(=O)NO)CC(C)C | 1 | 1 | 0.7
CNC(=O)[C@@H](Cc1cccc2cccnc12)NC(=O)[C@@H](CC(=O)NO)CC(C)C | 0.54 | 1.3 | 1.5
CNC(=O)[C@H](Cc1cn(C)c2ccccc12)NC(=O)[C@@H](CC(=O)NO)CC(C)C | 0.66 |  | 1.6
CCCC[C@H](CC(=O)NO)C(=O)N[C@@H](Cc1c[nH]c2ccccc12)C(=O)NC | 0.3 | 0.57 | 0.54
CC(C)C[C@H](CC(=O)NO)C(=O)N[C@H](Cc1ccc2ccccc2c1)C(=O)NCCCN1CCOCC1 | 4.5 | 3 | 3.5
CCCCCCCC[C@H](CC(=O)NO)C(=O)N[C@@H](Cc1c[nH]c2ccccc12)C(=O)NC | 1.6 | 0.66 | 0.63
CC(C)C[C@H](CC(=O)NO)C(=O)N[C@@H](Cc1c[nH]c2ccccc12)C(=O)NCc1ccc2c(c1)OCO2 | 3.7 | 6.9 | 1.7
CC(C)C[C@H](CC(=O)NO)C(=O)N[C@@H](Cc1c[nH]c2ccccc12)C(=O)NCCO | 0.35 | 0.44 | 0.76
CC(C)C[C@H](CC(=O)NO)C(=O)N[C@@H](Cc1c[nH]c2ccccc12)C(=O)NC1CCc2ccccc21 (single isomer, unassigned) | 130 |  | 100
CC(C)C[C@H](CC(=O)NO)C(=O)N[C@H](Cc1ccncc1)C(=O)NCc1ccccc1 | 0.96 |  | 1.5
CC(C)C[C@H](CC(=O)NO)C(=O)N[C@@H](Cc1c[nH]c2ccccc12)C(=O)NCCNC(=O)OCc1ccccc1 | 0.94 |  | 1.1
CC(C)CC(CC(=O)NO)C(=O)N[C@@H](Cc1c[nH]c2ccccc12)C(=O)NC1CCc2ccccc21 (single isomer, unassigned) | 24 |  | 30
CC(C)C[C@H](CC(=O)NO)C(=O)N[C@@H](Cc1c[nH]c2ccccc12)C(=O)NCc1ccccc1 | 1.2 | 2 | 5
CC(C)C[C@H](CC(=O)NO)C(=O)N[C@@H](Cc1c[nH]c2ccccc12)C(=O)NCc1cccnc1 | 0.11 | 0.52 | 0.78
CNC(=O)[C@@H](CC(C)C)NC(=O)C(CC(C)C)C(O)C(=O)NO (single isomer, unassigned) | 0.53 | 0.47 | 2.3
CNC(=O)[C@H](Cc1c[nH]c2ccccc12)NC(=O)[C@@H](CC(=O)NOCC(=O)OC)CC(C)C | 460 | 71000 | 580
CCCCCNC(=O)[C@H](Cc1c[nH]c2ccccc12)NC(=O)[C@@H](CC(=O)NO)CC(C)C | 6.5 | 4.6 | 7.1
CNC(=O)[C@@H](Cc1csc2ccccc12)NC(=O)[C@@H](CC(=O)NO)CC(C)C | 0.45 | 0.44 | 0.83
CC(C)C[C@H](CC(=O)NO)C(=O)N[C@H](Cc1ccc2ccccc2c1)C(=O)NCc1ccccc1 | 7.7 | 18 | 5.3
CC(C)C[C@H](CC(=O)NO)C(=O)N[C@H](Cc1ccc(-c2ccccc2)cc1)C(=O)NCc1ccccc1 | 3.6 |  | 3

Compound | Ki (Neutrophil collagenase) [nM] | Ki [1] [nM] | Ki [2] [nM]
CC(C)C[C@H](CC(=O)NO)C(=O)N[C@@H](Cc1c[nH]c2ccccc12)C(=O)N1CCOCC1 | 6.9 | 3.5 | 8.7
CCCCCO[C@H](CC(=O)NO)C(=O)N[C@@H](Cc1c[nH]c2ccccc12)C(=O)NC | 7.8 | 43 | 26
CNC(=O)[C@@H](Cc1ccccc1)NC(=O)[C@@H](CC(=O)NO)CC(C)C |  |  | 0.96
CC(C)C[C@H](CC(=O)NO)C(=O)N[C@@H](Cc1c[nH]c2ccccc12)C(=O)NCCCN1CCOCC1 | 0.39 | 0.71 | 1.9
CC(C)C[C@H](CC(=O)NO)C(=O)N[C@@H](Cc1c[nH]c2ccccc12)C(=O)NCc1ccncc1 | 0.29 | 0.6 | 1.5
CC(C)C[C@H](CC(=O)NO)C(=O)N[C@@H](Cc1c[nH]c2ccccc12)C(=O)N(C)C | 8.5 | 19 | 22
CC(C)C[C@H](CC(=O)NO)C(=O)N[C@@H](Cc1c[nH]c2ccccc12)C(=O)NCCc1ccccn1 | 0.49 | 0.73 | 1.4
CC(C)C[C@H](CC(=O)NO)C(=O)N[C@H](Cc1cccc2ccccc12)C(=O)NCCCN1CCOCC1 | 0.3 | 0.59 | 0.58
CC(C)C[C@H](CC(=O)NO)C(=O)N[C@H](Cc1cccnc1)C(=O)NCc1ccccc1 | 0.63 |  | 2.7
CC(C)C[C@H](CC(=O)NO)C(=O)N[C@@H](Cc1c[nH]c2ccccc12)C(=O)N[C@@H](C)c1ccccc1 | 0.75 | 0.64 | 3.7
CNC(=O)[C@@H](Cc1cccc2ccccc12)NC(=O)[C@@H](CC(=O)NO)CC(C)C | 0.64 | 0.42 | 1.3
CC(C)C[C@H](CC(=O)NO)C(=O)N(C)[C@@H](Cc1c[nH]c2ccccc12)C(=O)NCCCN1CCOCC1 | 77 | 55 | 69
CNC(=O)[C@H](Cc1c[nH]c2ccccc12)NC(=O)[C@@H](CC(=O)NO)OC(C)C | 12 | 42 | 18
CNC(=O)[C@@H](CC(C)C)NC(=O)[C@@H](CC(=O)NO)CC(C)C | 0.65 | 1.1 | 2.5
CNC(=O)[C@H](Cc1c[nH]c2ccccc12)NC(=O)[C@@H](CC(=O)NOCc1ccccc1)CC(C)C | 16 | 11 | 13
CC(C)C[C@H](CC(=O)NO)C(=O)N[C@@H](Cc1c[nH]c2ccccc12)C(=O)NC1CC1 | 0.34 | 0.88 | 1.2
CC(C)C[C@H](CC(=O)NO)C(=O)N[C@H](Cc1ccc2ccccc2c1)C(=O)NCCc1ccc(O)cc1 | 4.5 | 8.1 | 1.7
CNC(=O)[C@H](Cc1c[nH]c2ccccc12)NC(=O)[C@@H](CC(=O)NOC)CC(C)C | 7.7 | 6.3 | 7.9
CCCCCC[C@H](CC(=O)NO)C(=O)N[C@@H](Cc1c[nH]c2ccccc12)C(=O)NC | 0.24 | 0.21 | 0.41
CNC(=O)[C@H](Cc1c[nH]c2ccccc12)NC(=O)[C@@H](CC(=O)O)CC(C)C | 17 | 170 | 100

Compound | Ki (Neutrophil collagenase) [nM] | Ki [1] [nM] | Ki [2] [nM]
CC(C)C[C@H](CC(=O)NO)C(=O)N[C@H](Cc1ccncc1)C(=O)N[C@@H](C)c1ccccc1 | 0.7 | 1.9 | 2.5
CC(C)C[C@H](CC(=O)NO)C(=O)N[C@@H](Cc1c[nH]c2ccccc12)C(=O)N1CCCCC1 | 27 | 19 | 13
CC(C)C[C@H](CC(=O)NO)C(=O)N[C@H](Cc1ccc(-c2ccccc2)cc1)C(=O)NCCCN1CCOCC1 | 6.8 | 6.7 | 3.6
CC(C)C[C@H](CC(=O)NO)C(=O)N[C@@H](Cc1c[nH]c2ccccc12)C(=O)NCCc1ccc(O)cc1 | 0.1 | 0.52 | 1.1
CNC(=O)[C@@H](Cc1ccc(-c2ccccc2)cc1)NC(=O)[C@@H](CC(=O)NO)CC(C)C | 2.4 | 4 | 4.1
CC(C)C[C@H](CC(=O)NO)C(=O)N[C@@H](Cc1c[nH]c2ccccc12)C(=O)NCc1nccs1 | 0.56 |  | 0.9
CNC(=O)[C@@H](Cc1ccc2ccccc2c1)NC(=O)[C@@H](CC(=O)NO)CC(C)C | 1.3 | 0.7 | 0.99
CNC(=O)[C@H](Cc1c[nH]c2ccccc12)N(C)C(=O)[C@@H](CC(=O)NO)CC(C)C | 21 | 17 | 42
CC(C)C[C@H](CC(=O)NO)C(=O)N[C@@H](Cc1c[nH]c2ccccc12)C(=O)N1CCCC1 | 17 | 20 | 26
CC(C)C[C@H](CC(=O)NO)C(=O)N[C@@H](Cc1c[nH]c2ccccc12)C(=O)NCc1ccco1 | 0.49 | 0.92 | 1.7
CC(C)C[C@H](CC(=O)NO)C(=O)N[C@@H](Cc1c[nH]c2ccccc12)C(=O)NC1CCCC1 | 1.6 | 2.6 | 3
CC(C)C[C@H](CC(=O)NO)C(=O)N[C@H](Cc1ccncc1)C(=O)NCCc1ccc(O)cc1 | 0.33 | 1.9 | 1.7
CC(C)C[C@H](CC(=O)NO)C(=O)N[C@@H](Cc1c[nH]c2ccccc12)C(=O)NCc1nc2ccccc2[nH]1 | 5.2 | 7.3 | 3
CC(C)C[C@H](CC(=O)NO)C(=O)N[C@@H](Cc1c[nH]c2ccccc12)C(=O)NCc1ccccn1 | 0.43 | 0.54 | 0.68
CC(C)C[C@H](CC(=O)NO)C(=O)N[C@H](Cc1ccc(-c2ccccc2)cc1)C(=O)N[C@@H](C)c1ccccc1 | 13 | 25 | 6.3
CNC(=O)[C@@H](Cc1ccncc1)NC(=O)[C@@H](CC(=O)NO)CC(C)C | 1.7 | 0.96 | 2.8
CC(C)C[C@H](CC(=O)NO)C(=O)N[C@@H](Cc1c[nH]c2ccccc12)C(=O)NCCCn1ccnc1 | 0.59 | 1.3 | 1.1
CC(C)C[C@H](CC(=O)NO)C(=O)N[C@H](Cc1ccc2ccccc2c1)C(=O)N[C@@H](C)c1ccccc1 | 14 | 13 | 6.9
CC(C)C[C@H](CC(=O)NO)C(=O)N[C@H](Cc1ccc(-c2ccccc2)cc1)C(=O)NCCc1ccc(O)cc1 | 13 | 8.1 | 6.5
CNC(=O)[C@H](Cc1c[nH]c2ccccc12)NC(=O)C(CC(C)C)C(O)C(=O)NO (single isomer, unassigned) | 0.41 | 0.89 | 1.7
